Experiments:
endometriomas = test: Human clinical trial: resolution or growth of endometriomas followed by monthly ultrasound under TFI chemotherapy and antioxidant counter therapy; type: in vivo
Source text: When TFI chemotherapy is stopped to allow the thyroid a rest, we see a general improvement in iron scavenging at lower dose rates afterwards (which hints at a multi-step process that can be slowly poisoned, most probably by I^− to tri-iodide) and usually a recovery to visibility in those in-completely resolved endometriomas during this treatment hiatus. We timed this 3rd party evidence trial to happen as we approached a pre-planned thyroid rest period, taking monthly ultrasounds before to position each active endometrioma as closely as possible, and include three such rest periods, plus two thyroid examinations.
The simplest test was to gently down-regulate the CMI in a patient while that patient was still on TFI chemotherapy, and to observe what happens next. The patient then took 800 international units of vitamin E a day (as a tocopherol). […] A second antioxidant, dietary zinc (10 mg/day), was added to the regimen. Use of both antioxidants allowed us to say that this was not a special case for either antioxidant, though the cumulative effects were very obvious. Vitamin E was stopped two weeks before zinc, to provide a period of zinc only. TFI-induced resolution was still blocked.
The patient then went into their thyroid rest period, and as usual a few recently but incompletely resolved endometriomas developed, but so did two that had been thought resolved from two years ago for a total of five.

[1] = Ghent et al (1993); U.S. Pat. No. 4,555,347; cited from earlier work
[2] = tested on: normal self-cells of the uterus; test: Transvaginal ultrasound of uterine lining / normal self-cells of the uterus, and menstrual period cycle, in the same patient; type: in vivo, human; conditions: patient taking aspirin with TFI
Source text: In using transvaginal ultra sound, it was possible to view and compare the thickness of the uterine lining, and no abnormal change was observed despite all the activity in the peritoneal cavity.
It should be noted that use of counter chemotherapy produced no change in those similar normal self-cells of the uterus as detectable by ultrasound. All of these ultrasounds were taken at 3 to four days after the patient's periods, except the last one as they had their period cycle extended by taking aspirin.

In the case of `[Zn]` [zinc], the “TFI-induced resolution of endometriomas” value (endometriomas; period of zinc only (vitamin E stopped two weeks before zinc), dietary zinc 10 mg/day, on TFI) is reported as “still blocked”.
For `II` [TFI, thermodynamically free iodine], the “toxicity compared with other forms of iodine” value [1] is given as “least toxicity of all forms of iodine”, the “clean-up of endometrial cell debris, aberrant organ attachments, endometriomas and stratum functional cell masses” value (endometriomas; clinical tests (FIG. 2), patients, administration of iodine) is given as “effective” and the “time for resolution of endometriomas (Stage I to Stage IV process)” value (endometriomas; otherwise takes about 15 years without TFI) is given as “about one or two”. The pain (endometriomas; use of TFI in the endometriosis patient) was “relief from pain”.
With `Cc1c(C)c2c(c(C)c1O)CC[C@@](C)(CCC[C@H](C)CCC[C@H](C)CCCC(C)C)O2` [vitamin E, alpha tocopherol] the “change in endometriomas (number and size)” value (endometriomas; patient still on TFI chemotherapy, 800 international units of vitamin E a day) was “Minor change was observed, with new endometriomas developing and old ones rapidly increasing in size”.
With `CC(=O)Oc1ccccc1C(=O)O` [aspirin, acetylsalicylic acid] the period cycle [2] was “extended”.

Source: patent US20090214434A1, “METHOD OF DETECTING AND TREATING ALLOGENIC CELLS RESPONSIBLE FOR ENDOMETRIOSIS” (priority 2004, published 2009)
